From ChEMBL document CHEMBL4422622, “Identification of Mineralocorticoid Receptor Modulators with Low Impact on Electrolyte Homeostasis but Maintained Organ Protection” (J Med Chem, 2019)
≈ marks a conversion by molar mass, not a printed value.

Experiments:
Glucocorticoid receptor = target: T1, Glucocorticoid receptor (Homo sapiens, UniProt P04150)
T1 sequence (P04150 whole entry): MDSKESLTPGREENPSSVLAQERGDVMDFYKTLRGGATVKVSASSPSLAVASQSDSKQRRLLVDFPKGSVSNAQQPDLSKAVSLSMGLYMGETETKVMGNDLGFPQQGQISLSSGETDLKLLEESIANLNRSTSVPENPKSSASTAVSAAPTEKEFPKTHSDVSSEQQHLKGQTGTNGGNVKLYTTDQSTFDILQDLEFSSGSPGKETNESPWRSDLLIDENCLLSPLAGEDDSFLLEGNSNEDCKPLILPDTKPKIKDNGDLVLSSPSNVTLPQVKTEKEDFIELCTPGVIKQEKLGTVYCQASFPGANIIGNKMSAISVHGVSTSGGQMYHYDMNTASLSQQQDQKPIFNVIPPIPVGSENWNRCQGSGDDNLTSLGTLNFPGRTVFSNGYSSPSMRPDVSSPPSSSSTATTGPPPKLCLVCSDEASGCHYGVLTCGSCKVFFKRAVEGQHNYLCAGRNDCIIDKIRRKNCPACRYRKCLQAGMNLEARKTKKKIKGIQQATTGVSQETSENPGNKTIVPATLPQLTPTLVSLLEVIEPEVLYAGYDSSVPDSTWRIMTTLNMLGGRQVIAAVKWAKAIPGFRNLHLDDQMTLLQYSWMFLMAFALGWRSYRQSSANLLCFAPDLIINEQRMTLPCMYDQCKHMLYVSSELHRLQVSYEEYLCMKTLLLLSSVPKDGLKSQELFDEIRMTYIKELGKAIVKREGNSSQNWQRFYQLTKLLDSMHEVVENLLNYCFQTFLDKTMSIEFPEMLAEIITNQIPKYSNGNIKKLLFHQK
Description: Binding affinity to recombinant human GR LBD by fluormone GS red-fluorescence polarization assay

[1] = Fraction unbound in Han Wistar rat plasma at 1 uM after 4 hrs by LC/MS/MS analysis; assay type: ADME, cell-free
[2] = Terminal half life in Sprague-Dawley rat at 1 mg/kg, iv by LC-MS/MS analysis; assay type: ADME, organism-based; settings: in vivo, read-out: beta t1/2 (converted)
[3] = Intrinsic clearance in human liver microsomes at 1 uM measured up to 30 mins in presence of NADPH by LC-MS/MS analysis; assay type: ADME, Microsome; settings: read-out: CLH
[4] = Octanol-water partitioning co-efficient, log D of the compound at pH 7.4 by LC/MS/MS analysis; assay type: physicochemical
Rattus norvegicus = test: Induction of hyperkalemia in Sprague-Dawley rat fed on low salt diet for 72 hrs assessed as increase in Na+/K+ ratio in urine administered via oral gavage after 8 hrs; assay type: organism-based; settings: in vivo
[5] = Intrinsic clearance in Han Wistar rat hepatocytes assessed per million cells at 1 uM after 4 hrs by LC/MS/MS analysis; assay type: ADME, cell-based, Hepatocyte; settings: read-out: CLH
[6] = Oral bioavailability in Sprague-Dawley rat at 3 mg/kg by LC-MS/MS analysis; assay type: ADME, organism-based; settings: in vivo
[7] = Kinetic solubility of compound at pH 7.4 after 24 hrs by shake-flask assay; assay type: physicochemical; settings: buffer, read-out: -log(solubility) (converted)
[8] = Clearance in Sprague-Dawley rat at 1 mg/kg, iv by LC-MS/MS analysis; assay type: ADME, organism-based; settings: in vivo
[9] = Volume of distribution at steady state in Sprague-Dawley rat at 1 mg/kg, iv by LC-MS/MS analysis; assay type: ADME, organism-based; settings: in vivo, read-out: Vdss
Progesterone receptor = target: T2, Progesterone receptor (Homo sapiens, UniProt P06401); test: Binding affinity to recombinant human progesterone receptor LBD by fluormone PL red-fluorescence polarization assay
T2 sequence (P06401 whole entry): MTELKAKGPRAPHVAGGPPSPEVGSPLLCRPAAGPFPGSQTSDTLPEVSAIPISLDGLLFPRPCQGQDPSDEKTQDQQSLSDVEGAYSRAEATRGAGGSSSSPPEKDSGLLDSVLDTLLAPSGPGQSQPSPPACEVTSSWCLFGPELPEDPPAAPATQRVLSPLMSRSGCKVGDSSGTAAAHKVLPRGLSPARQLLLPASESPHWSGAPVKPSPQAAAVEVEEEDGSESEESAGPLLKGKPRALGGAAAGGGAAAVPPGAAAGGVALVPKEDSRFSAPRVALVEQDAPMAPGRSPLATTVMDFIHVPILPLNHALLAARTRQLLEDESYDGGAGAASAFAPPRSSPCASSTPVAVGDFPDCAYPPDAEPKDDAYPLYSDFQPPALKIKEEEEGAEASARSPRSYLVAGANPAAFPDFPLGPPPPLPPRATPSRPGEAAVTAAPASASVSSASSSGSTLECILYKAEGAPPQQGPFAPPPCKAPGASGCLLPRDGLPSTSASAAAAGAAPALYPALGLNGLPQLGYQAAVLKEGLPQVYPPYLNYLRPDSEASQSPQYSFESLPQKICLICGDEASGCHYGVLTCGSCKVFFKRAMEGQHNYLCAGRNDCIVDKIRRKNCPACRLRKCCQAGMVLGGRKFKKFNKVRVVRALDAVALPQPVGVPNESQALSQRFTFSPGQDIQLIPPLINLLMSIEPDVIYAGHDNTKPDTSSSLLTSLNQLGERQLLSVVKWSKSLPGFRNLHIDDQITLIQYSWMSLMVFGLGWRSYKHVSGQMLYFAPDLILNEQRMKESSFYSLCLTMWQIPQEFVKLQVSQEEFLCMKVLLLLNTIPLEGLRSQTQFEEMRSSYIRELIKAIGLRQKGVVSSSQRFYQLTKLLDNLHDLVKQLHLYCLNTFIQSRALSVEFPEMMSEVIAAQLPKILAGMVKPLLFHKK

[10] = target: T3, Mineralocorticoid receptor (Rattus norvegicus, UniProt P22199)
T3 sequence (P22199 whole entry): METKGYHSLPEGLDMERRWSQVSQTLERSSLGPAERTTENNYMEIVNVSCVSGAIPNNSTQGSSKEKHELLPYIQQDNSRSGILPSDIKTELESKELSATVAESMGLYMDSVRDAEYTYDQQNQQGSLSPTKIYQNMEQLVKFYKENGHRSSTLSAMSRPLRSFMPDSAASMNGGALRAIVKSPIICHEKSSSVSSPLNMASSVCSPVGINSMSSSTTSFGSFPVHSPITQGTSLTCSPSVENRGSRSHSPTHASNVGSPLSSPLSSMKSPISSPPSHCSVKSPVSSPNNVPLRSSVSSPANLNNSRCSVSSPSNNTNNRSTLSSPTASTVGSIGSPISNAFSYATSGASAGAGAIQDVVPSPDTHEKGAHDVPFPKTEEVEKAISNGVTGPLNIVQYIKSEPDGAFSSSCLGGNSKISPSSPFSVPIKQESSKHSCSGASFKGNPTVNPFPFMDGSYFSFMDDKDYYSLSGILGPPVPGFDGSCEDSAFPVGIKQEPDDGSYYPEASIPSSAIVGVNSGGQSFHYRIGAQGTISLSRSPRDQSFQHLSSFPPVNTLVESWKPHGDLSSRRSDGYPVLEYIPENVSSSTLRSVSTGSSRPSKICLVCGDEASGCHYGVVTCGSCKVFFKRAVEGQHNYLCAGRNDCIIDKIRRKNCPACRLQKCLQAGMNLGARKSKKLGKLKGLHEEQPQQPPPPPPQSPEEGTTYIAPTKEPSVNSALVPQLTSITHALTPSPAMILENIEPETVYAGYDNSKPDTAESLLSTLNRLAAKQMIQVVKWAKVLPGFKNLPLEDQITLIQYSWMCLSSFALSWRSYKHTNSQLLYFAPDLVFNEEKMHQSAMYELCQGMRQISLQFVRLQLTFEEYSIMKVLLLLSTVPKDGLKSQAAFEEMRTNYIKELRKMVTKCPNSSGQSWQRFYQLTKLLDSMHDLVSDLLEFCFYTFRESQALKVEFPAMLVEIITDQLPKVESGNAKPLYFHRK
Description: Antagonist activity at gal4-fused rat mineralocorticoid receptor LBD in expressed in human U2OS cells by luciferase reporter gene assay

[11] = Apparent permeability in human Caco2 cells at 10 uM after 45 to 120 mins by LC/MS/MS analysis; assay type: ADME, cell-based; settings: Caco-2
[12] = Volume of distribution at steady state in Han Wistar rat at 1.2 mg/kg, iv by LC-MS/MS analysis; assay type: ADME, organism-based; settings: in vivo, read-out: Vdss
[13] = Terminal half life in Han Wistar rat at 1.2 mg/kg, iv by LC-MS/MS analysis; assay type: ADME, organism-based; settings: in vivo, read-out: beta t1/2 (converted)
[14] = Intrinsic clearance in human hepatocytes assessed per million cells at 1 uM measured up to 120 mins in presence of NADPH by LC-MS/MS analysis; assay type: ADME, cell-based, Hepatocyte; settings: read-out: CLH
[15] = Clearance in Han Wistar rat at 1.2 mg/kg, iv by LC-MS/MS analysis; assay type: ADME, organism-based; settings: in vivo
[16] = Oral bioavailability in Han Wistar rat at […] by LC-MS/MS analysis; assay type: ADME, organism-based; settings: in vivo

Row | Ki (Glucocorticoid receptor) [nM] | fraction unbound at 4 h, 1 µM [1] | half-life [2] [h] | microsomal CLint at 1 µM [3] [µL/min/mg] | logD [4] | hepatocyte CLint at 1 µM [5] [µL/min/1e6 cells] | bioavailability [6] [%] | solubility kinetic at 24 h [7] [µM] | clearance [8] [mL/min/kg] | Vd [9] [L/kg] | Ki (Progesterone receptor) [nM] | IC50 [10] [nM] | Papp at 10 µM [11] [×10⁻⁶ cm/s] | Vd [12] [L/kg] | half-life [13] [h] | hepatocyte CLint at 1 µM [14] [µL/min/1e6 cells] | clearance [15] [mL/min/kg] | bioavailability [16] [%] | SMILES | Activity (Rattus norvegicus)
1 | 1260 | 0.091 | 2.4 | 8 | 2.6 | 14 | 76 | 25.1 (≈ 8.6 µg/mL) | 8 | 1.7 | 25100 | – | – | – | – | – | – | – | C[C@H]1COc2cc(F)ccc2N1C(=O)c1ccc2c(c1)NC(=O)CO2 | Toxic
2 | – | 0.4 | – | – | 2 | 19 | – | – | – | – | – | 10 | 21 | 1.5 | 0.43 | 3 | 44 | 11 | CNC(=O)C[C@H]1COc2cc(Cl)ccc2N1C(=O)c1ccc2c(c1)NC(=O)CO2 | Non-Toxic
